Test results taken from patent US20250313596A1, “BACILLUS SUBTILIS STRAINS PRODUCING NEW MYCOSUBTILIN ISOFORMS” (Universite de Lille, priority 2022, published 2025).
Converted amounts (≈) assume the structure as drawn. Where two headings read alike, the source gives them in different places. Where a SMILES comes first, the peptide text is derived from it. [ ]: non-standard residue; d: D form.

Legend:
A. niger = conditions: Guez et al., 2022; cited from earlier work
B. cinerea [1] = conditions: Béchet et al., 2013; cited from earlier work
B. cinerea [2] = type: cell-based; conditions: for ECS0 (μg/ml) B. cinerea: concentration that reduces fungal strain growth by 50%; for EC95 (μg/ml) B. cinerea: concentration that reduces pathogen growth by 95%
Protocol: (§1) Three different fungal strains were tested for their antifungal activity: B. cinerea, Aspergillus sp. and Z. tritici. In addition to the two conventional isoforms, three new isoforms are being tested for their antifungal properties. A range of concentrations (μg a.i./ml or ppm) 0; 0.0037; 0.0146; 0.0586; 0.2344; 0.9375; 3.75 and 15 is used to determine the activity coefficient. Based on this concentration range, the EC50 (concentration that reduces fungal strain growth by 50%) and EC95 (concentration that reduces pathogen growth by 95%) were calculated and presented as disclosed in Table 5.
4.1 Antifungal Activity on B. cinerea

Vero cells = type: cell-based
Protocol: The cytotoxicity test is performed using Vero cells and the CyQUANT™ XTT Cell Viability assay kit (supplied by Invitrogen™).
Samples are dissolved in 100% DMSO at a concentration of 20-50 g/L. The final concentration in DMEM medium is 40 μg/L. Cells were prepared in flasks containing DMEM cell culture medium with 10% FBS as follows:
A 175 ml flask containing 20-30 million cells with 25 ml medium and 2 ml trypsin was added. Then the medium was discarded as the cells were attached to the flask wall. Rinse twice with PBS, then trypsin was added to detach cells from the flask wall. The mixture was incubated for 5 min at 37° C. To inactivate trypsin, 6 ml […] was added to the medium (twice the volume of the original trypsin in the medium).
In a 50 ml flask, the medium was centrifuged for 5 min at 300 g. […]. The medium was discarded, and the cells were resuspended. 100 μL of cells were added to 100 μL of dye, then 12 μL was used for counting. The percentage of viability was compared with a control of cells without any treatment.
The test is performed in a 96-well plate. A range of concentrations (mg/l) 0.14; 0.28; 0.56; 1.16; 2.25; 4.5 is used to determine the toxicity limit of each isoform.

Aspergillus sp. = type: cell-based
Protocol: as §1
4.2 Antifungal Activity on Aspergillus sp.

Z. tritici = type: cell-based; conditions: for ECS0 (μg/ml) Z. tritici: concentration that reduces fungal strain growth by 50%; for EC95 (μg/ml) Z. tritici: concentration that reduces pathogen growth by 95%
Protocol: as §1
4.3 Antifungal Activity on Z. Tritici

rats = conditions: 28-day treatment and 14 days recovery period; cited from earlier work

In the case of n-C16, the MIC (A. niger) is given as 16 µM and the MIC (B. cinerea [1]) is given as 16 µM.

In the case of CCCCCCCCCCCCCC[C@@H]1CC(=O)N[C@@H](CCC(N)=O)C(=O)N[C@H](Cc2ccc(O)cc2)C(=O)N[C@H](CC(N)=O)C(=O)N[C@@H](CCC(N)=O)C(=O)N2CCC[C@H]2C(=O)N[C@H](CO)C(=O)N[C@@H](CC(N)=O)C(=O)N1 [Gln1-C17], the “antifungal efficacy in words” value (B. cinerea [2]; B. cinerea) was “effective against this fungal strain, but at higher concentrations”, the “ECS0 (μg/ml) B. cinerea” value (B. cinerea [2]) was 0.920 µg/mL and the “EC95 (μg/ml) B. cinerea” value (B. cinerea [2]) was 1.117 µg/mL (≈ 1.02 µM). For the same compound, the “EC50 (cell viability)” value (Vero cells) was “around 3.4 mg/L”, the EC50 value (Aspergillus sp.) was 1.019 ppm and the EC95 value (Aspergillus sp.; Aspergillus sp.) was 1.290 ppm. The “antifungal efficacy in words” value (Aspergillus sp.; Aspergillus sp.) was “effective against this fungal strain”, the “antifungal efficacy in words” value (Z. tritici; Z. tritici) was “effective against this fungal strain, but at a higher concentration” and the “ECS0 (μg/ml) Z. tritici” value (Z. tritici) was 2.156 µg/mL. For the same compound, the “EC95 (μg/ml) Z. tritici” value (Z. tritici) was 17.040 µg/mL (≈ 15.5 µM).

In the case of Iturin A, the “toxic effects on organs, in words” value (rats) is given as “no toxic effects on the lungs, heart and kidneys”.

For “conventional C17 isoform of mycosubtilin, ring Asn-Tyr-Asn-Gln-Pro-Ser-Asn (peaks 5, 6, 7; FIG. 1) (cyclo(N[dY][dN]QP[dS]N); not fully specified (N-terminus)) [A-C17]”, the “ECS0 (μg/ml) B. cinerea” value (B. cinerea [2]) was 0.467 µg/mL, the “EC95 (μg/ml) B. cinerea” value (B. cinerea [2]) was 0.677 µg/mL and the “EC50 (cell viability)” value (Vero cells; Vero cells, XTT, range 0.14-4.5 mg/l, determined from FIG. 7) was “around 1.7 mg/L”. The EC50 value (Aspergillus sp.; Aspergillus sp.) was 1.191 ppm, the EC95 value (Aspergillus sp.; Aspergillus sp.) was 1.905 ppm and the “higher concentration of the former required to have the same activity as the latter” value (Aspergillus sp.; EC50, A-C17 versus Gln1-C17) was 14%. The “higher concentration of the former required to have the same activity as the latter” value (Aspergillus sp.; EC95, A-C17 versus Gln1-C17) was 32%, the “ECS0 (μg/ml) Z. tritici” value (Z. tritici) was 0.943 µg/mL and the “EC95 (μg/ml) Z. tritici” value (Z. tritici) was 18.010 µg/mL.

For CCCCCCCCCCCCCC1CC(=O)N[C@@H](CCC(N)=O)C(=O)N[C@H](Cc2ccc(O)cc2)C(=O)N[C@H](CC(N)=O)C(=O)N[C@@H](CCC(N)=O)C(=O)N2CCC[C@H]2C(=O)N[C@H](CO)C(=O)N[C@@H](CC(N)=O)C(=O)N1 (some centres unmarked) [Gln1-C16], the EC50 value (B. cinerea [2]) was 1.048 ppm, the “EC50 (cell viability)” value (Vero cells) was 4.5 µg/mL (≈ 4.15 µM) and the “toxicity compared with the conventional isoform, in words” value (Vero cells) was “significantly less toxic than the conventional A-C16 isoform”. It also gave an EC50 value (Z. tritici) of 1.906 ppm.

In the case of CCCCCCCCCCCCCC1CC(=O)N[C@@H](CC(N)=O)C(=O)N[C@H](Cc2ccc(O)cc2)C(=O)N[C@H](CCC(N)=O)C(=O)N[C@@H](CCC(N)=O)C(=O)N2CCC[C@H]2C(=O)N[C@H](CO)C(=O)N[C@@H](CC(N)=O)C(=O)N1 (some centres unmarked) [Gln3-C16], the “EC50 (cell viability)” value (Vero cells) was “over 4.5 mg/L” and the “toxicity compared with the conventional isoform, in words” value (Vero cells) was “significantly less toxic than the conventional A-C16 isoform”.

For CCCCCCCCCCCCCC[C@@H]1CC(=O)N[C@@H](CC(N)=O)C(=O)N[C@H](Cc2ccc(O)cc2)C(=O)N[C@H](CCC(N)=O)C(=O)N[C@@H](CCC(N)=O)C(=O)N2CCC[C@H]2C(=O)N[C@H](CO)C(=O)N[C@@H](CC(N)=O)C(=O)N1 [Gln3-C17] (HELM PEPTIDE1{N.[dY].[dQ].Q.P.[dS].N.[CCCCCCCCCCCCCC[C@H](CC(=O)[*:2])N[*:1]]}$PEPTIDE1,PEPTIDE1,1:R1-8:R2$$$V2.0), the “ECS0 (μg/ml) B. cinerea” value (B. cinerea [2]) was 1.646 µg/mL, the “EC95 (μg/ml) B. cinerea” value (B. cinerea [2]) was 3.437 µg/mL (≈ 3.13 µM) and the “EC50 (cell viability)” value (Vero cells) was “over 4.5 mg/L”. The “ECS0 (μg/ml) Aspergillus sp.” value (Aspergillus sp.; concentration that reduces fungal strain growth by 50%) was 6.335 µg/mL, the “EC95 (μg/ml) Aspergillus sp.” value (Aspergillus sp.; concentration that reduces pathogen growth by 95%) was 13.659 µg/mL (≈ 12.4 µM) and the “ECS0 (μg/ml) Z. tritici” value (Z. tritici) was 4.314 µg/mL. For the same compound, the “EC95 (μg/ml) Z. tritici” value (Z. tritici) was 16.078 µg/mL (≈ 14.6 µM).
